According to patent publication US7601850B2, “Phenyl-thiophene type vitamin D receptor modulators” (Eli Lilly and Company, priority 2002, dated 2009):
Read-outs that look alike come from different tables or passages of the source.

Tested on: rat osteocalcin promoter
Assay: OCN (osteocalcin) promoter assay in RG-15 (ROS 17/2.8) cells
Assay type: cell-based
Procedure: 4. The OCN Promoter test is described in the “Assay” section of the Description, infra.
3. The OCN (Osteocalcin) Promoter Assay
The OCN Promoter Assay is an indicator and marker for osteoporosis. Desired assay results are EC50 less than or equal to 325 nM. Preferred assay results are less than 50 nM.
(3) Materials and Method for The OCN Promoter Assay:
The activation of osteocalcin by VDR ligands was evaluated in a rat osteoblast-like cell line RG-15 (ROS 17/2.8) stably expressing rat osteocalcin promoter fused with luciferase reporter gene. The stable cell lines were established as reported before (Activation of Osteocalcin Transcription involves interaction of protein kinase A- and Protein kinase C-dependent pathways. Boguslawski, G., Hale, L. V., Yu, X.-P., Miles, R. R., Onyia, J. E., Santerre R. F., Chandrasekhar, S. J Biol. Chem. 275, 999-1006, 2000). Confluent RG-15 cells maintained in DMEM/F-12 medium (3:1) containing 5% FBS, 300 µg/ml G418 and at 37° C. under 5% CO2/95% air atmosphere were trypsinized (0.25% trypsin) and plated into white opaque 96-well cell culture plates (25000 cells/well). After 24 hr, cells (in DMEM/F-12 medium+2% FBS) were treated with various concentrations of compounds, dissolved in DMSO. The final DMSO concentration remained at 0.01% (v/v). After 48 hr treatment, the medium was removed, cells were lysed with 50 µl of lysis buffer (From Luciferase reporter assay system, Roche Diagnostics, Indianapolis, Ind.) and assayed for luciferase activity using the Luciferase Reporter Gene Assay kit from Boehringer Mannheim as per manufacturer's specifications.

CCC(CC)(c1ccc(OCC(O)C(C)(C)C)c(C)c1)c1cc(C)c(C(=O)N[C@@H](CC(=O)OC)C(=O)OC)s1 (single isomer, unassigned) [Ex. 58, L-2-[(5-{1-ethyl-1-[4-(2-hydroxy-3,3-dimethyl-butoxy)-3-methyl-phenyl]-propyl}-3-methyl-thiophene-2-carbonyl)-amino]-succinic acid dimethyl ester]
EC50 (Rattus norvegicus): 0.277 µM

CCC(C)[C@H](NC(=O)c1sc(C(CC)(CC)c2ccc(OCC(O)C(C)(C)C)c(C)c2)cc1C)C(=O)OC (stereo partly drawn) [Ex. 68, L-2-[(5-{1-Ethyl-1-[4-(2-hydroxy-3,3-dimethyl-butoxy)-3-methyl-phenyl]-propyl}-3-methyl-thiophene-2-carbonyl)-amino]-3-methyl-pentanoic acid methyl ester]
EC50 (Rattus norvegicus): 0.056 µM

Cc1cc(C2(c3ccc(OCC(=O)C(C)(C)C)c(C)c3)CCCCC2)ccc1OCC(=O)C(C)(C)C [CC, 1-(4-{1-[4-(3,3-Dimethyl-2-oxo-butoxy)-3-methyl-phenyl]-cyclohexyl}-2-methyl-phenoxy)-3,3-dimethyl-butan-2-one, reference compound]
EC50 (Rattus norvegicus): > 1 µM

CCC(CC)(c1ccc(OCC(O)C(C)(C)C)c(C)c1)c1cc(C)c(C(=O)N(C)OC)s1 (stereo not shown) [Ex. 42, 5-{1-Ethyl-1-[4-(2-hydroxy-3,3-dimetliyl-butyoxy)-3-methyl-phenyl]-propyl}-3methyl-thiophene-2-carboxylic acid methoxy-methyl-amide]
EC50 (Rattus norvegicus): 0.0335 µM

CCC(CC)(c1ccc(OCC(O)C(C)(C)C)c(C)c1)c1cc(C)c(C(=O)N2CCC[C@H]2C(=O)O)s1 (stereo partly drawn) [Ex. 75, L-1-(5-{1-Ethyl-1-[4-(2-hydroxy-3,3-dimethyl-butoxy)-3-methyl-phenyl]-propyl}-3-methyl-thiophene-2-carbonyl)-pyrrolidine-2-carboxylic acid]
EC50: 0.423 µM

CCC(CC)(c1ccc(OCC(O)C(C)(C)C)c(C)c1)c1cc(C)c(C(=O)N2CCC[C@@H]2C(=O)O)s1 (stereo partly drawn) [Ex. 81, D-1-(5-{1-ethyl-1-[4-(2-hydroxy-3,3-dimethyl-butoxy)-3-methyl-phenyl]-propyl}-3-methyl-thiophene-2-carbonyl)-pyrrolidine-2-carboxylic acid]
EC50 (Rattus norvegicus): 0.2 µM

CCC(CC)(c1ccc(OCC(O)C(C)(C)C)c(C)c1)c1cc(C)c(C(=O)N[C@@H](C(=O)O)C(C)C)s1 (stereo partly drawn) [Ex. 87, D-2-[(5-{1-ethyl-1-[4-(2-hydroxy-3,3-dimethyl-butoxy)-3-methyl-phenyl]-propyl}-3-methyl-thiophene-2-carbonyl)-amino]-3-methyl-butyric acid]
EC50: > 1 µM

CCOC(=O)CSCc1sc(C(CC)(CC)c2ccc(OCC(=O)C(C)(C)C)c(C)c2)cc1C [Ex. 183, (5-{1-[4-(3,3-Dimethyl-2-oxo-butoxy)-3-methyl-phenyl]-1-ethyl-propyl}-3-methyl-thiophen-2-ylmethylsulfanyl)-acetic acid ethyl ester]
EC50 (Rattus norvegicus): 0.0386 µM

CCC(CC)(c1ccc(OCC(O)C(C)(C)C)c(C)c1)c1cc(C)c(C(=O)N[C@@H](C)C(=O)OC)s1 (single isomer, unassigned) [Ex. 64, L-2-[(5-{1-Ethyl-1-[4-(2-hydroxy-3,3-dimethyl-butoxy)-3-methyl-phenyl]-propyl}-3-methyl-thiophene-2-carbonyl)-amino]-propionic acid methyl ester]
EC50: 0.0041 µM

CCC(=O)NS(=O)(=O)c1sc(C(CC)(CC)c2ccc(OCC(=O)C(C)(C)C)c(C)c2)cc1C [Ex. 163, 5-{1-[4-(3,3-dimethyl-2-oxo-butoxy)-3-methyl-phenyl]-1-ethyl-propyl}-3-methyl-thiophene-2-sulfonic acid propionyl-amide]
EC50 (Rattus norvegicus): 0.106 µM

CCC(CC)(c1ccc(OCC(O)C(C)(C)C)c(C)c1)c1cc(C)c(C(=O)N[C@@H](CC(=O)O)C(=O)O)s1 (stereo partly drawn) [Ex. 59, L-2-[(5-{1-Ethyl-1-[4-(2-hydroxy-3,3-dimethyl-butoxy)-3-methyl-phenyl]-propyl}-3-methyl-thiophene-2-carbonyl)-amino]-succinic acid]
EC50 (Rattus norvegicus): 0.319 µM

CCC(CC)(c1ccc(OCC(=O)C(C)(C)C)c(C)c1)c1cc(C)c(S(=O)(=O)N[C@H](C)C(=O)O)s1 [Ex. 146]
EC50 (Rattus norvegicus): 0.0277 µM

CCC(CC)(c1ccc(OCC(=O)C(C)(C)C)c(C)c1)c1cc(C)c(C(=O)N(C)CC(=O)O)s1 [Ex. 118, N-methyl-2-[(5-{1-[4-(3,3-Dimethyl-2-oxo-butoxy)-3-methyl-phenyl]-1-ethyl-propyl}-3-methyl-thiophene-2-carbonyl)-methylamino]-acetic acid]
EC50 (Rattus norvegicus): 0.0323 µM

CCC(CC)(c1ccc(CCC(=O)O)c(C)c1)c1cc(C)c(CCC(O)C(C)(C)C)s1 (single isomer, unassigned) [Ex. 30A]
EC50 (Rattus norvegicus): 0.0112 µM

CCC(CC)(c1ccc(OCC(O)C(C)(C)C)c(C)c1)c1cc(C)c(S(=O)(=O)Nc2ccccc2C(=O)O)s1 (stereo not shown) [Ex. 149]
EC50 (Rattus norvegicus): 0.0983 µM

CCC(CC)(c1ccc(C(=O)OC)c(C)c1)c1cc(C)c(CCC(=O)C(C)(C)C)s1 [Ex. 20]
EC50 (Rattus norvegicus): 0.862 µM

CCC(CC)(c1ccc(OCC(O)C(C)(C)C)c(C)c1)c1ccc(S(=O)(=O)NCC(=O)O)s1 (stereo not shown) [Ex. 153]
EC50 (Rattus norvegicus): 0.187 µM

CCC(CC)(c1ccc(OCC(=O)C(C)(C)C)c(C)c1)c1cc(C)c(S(=O)(=O)NC(=O)COC)s1 [Ex. 166, 5-{1-[4-(3,3-Dimethyl-2-oxo-butoxy)-3-methyl-phenyl]-1-ethyl-propyl}-3-methyl-thiophene-2-sulfonic acid (2-methoxy-acetyl)-amide]
EC50 (Rattus norvegicus): 0.151 µM

CCC(CC)(c1ccc(CCC(O)C(C)(C)C)c(C)c1)c1cc(C)c(C(=O)O)s1 (stereo not shown) [Ex. 175, 5-{1-Ethyl-1-[4-(3-hydroxy-4,4-dimethyl-pentyl)-3-methyl-phenyl]-propyl}-3-methyl-thiophene-2-carboxylic acid]
EC50 (Rattus norvegicus): 0.127 µM

CCC(CC)(c1ccc(OCC(=O)C(C)(C)C)c(C)c1)c1cc(C)c(S(=O)(=O)NCCC(=O)O)s1 [Ex. 144]
EC50 (Rattus norvegicus): 0.0292 µM

CCC(CC)(c1ccc(OCC(O)C(C)(C)C)c(C)c1)c1cc(C)c(C(=O)N(C)CC(=O)O)s1 (stereo not shown) [Ex. 123, N-2-[(5-{1-ethyl-1-[4-(2-hydroxy-3,3-dimethyl-butoxy)-3-methyl-phenyl]-propyl}-3-methyl-thiophene-2-carbonyl)-methylamino]-acetic acid]
EC50 (Rattus norvegicus): 0.475 µM

CCC(CC)(c1ccc(OCC(O)C(C)(C)C)c(C)c1)c1cc(C)c(C(=O)NCCS(C)(=O)=O)s1 (stereo not shown) [Ex. 38, 5-[1-ethyl-1-[4-(2-hydroxy-3,3-dimethyl-butoxy)-3-methylphenyl]propyl]-3-methylthiophene-2-carboxylic acid (2-methylsulfonyl-ethyl) amide]
EC50 (Rattus norvegicus): 0.38 µM

CCC(C)[C@H](NC(=O)c1sc(C(CC)(CC)c2ccc(OCC(O)C(C)(C)C)c(C)c2)cc1C)C(=O)O (stereo partly drawn) [Ex. 69, L-2-[(5-{1-Ethyl-1-[4-(2-hydroxy-3,3-dimethyl-butoxy)-3-methyl-phenyl]-propyl}-3-methyl-thiophene-2-carbonyl)-amino]-3-methyl-pentanoic acid]
EC50 (Rattus norvegicus): 0.487 µM

CCC(CC)(c1ccc(OCC(O)C(C)(C)C)c(C)c1)c1cc(C)c(C(=O)NC(C)(C)C(=O)OC)s1 (single isomer, unassigned) [Ex. 70, 2-[(5-{1-Ethyl-1-[4-(2-hydroxy-3,3-dimethyl-butoxy)-3-methyl-phenyl]-propyl}-3-methyl-thiophene-2-carbonyl)-amino]-2-methyl-propionic acid methyl ester]
EC50: 0.0258 µM

CCC(CC)(c1ccc(OCS(C)(=O)=O)c(C)c1)c1cc(C)c(CCC(=O)C(C)(C)C)s1 [Ex. 13]
EC50 (Rattus norvegicus): 0.313 µM
